In one assay the target is T1, XIAP BIR-3 (Homo sapiens, UniProt P98170).
T1 construct: 40 nM of the respective IAP BIR3
Kind of assay: Fluorescence polarization binding to XIAP BIR-3 with labeled peptide AbuRPF-K(5-Fam)-NH2. Conditions: 40 nM BIR3, 5 nM labeled peptide, reported as ranges. On the procedure:
(§1) The binding affinities of the compounds are reported as a KD value (μM). Briefly, various concentrations of test peptides were mixed with 5 nM of the fluorescently labeled peptide (i.e., a mutated N-terminal Smac peptide—AbuRPF-K(5-Fam)-NH2) and 40 nM of the respective IAP BIR3 for 15 min at RT in […] of 0.1M Potassium Phosphate buffer, pH 7.5 containing 100 mg/ml bovine g-globulin. Following incubation, the polarization values (mP) were measured on a Victor2V (available from PerkinElmer Life Sciences) using a 485 nm excitation filter and a 520 nm emission filter. The reported binding affinities (KD values) are supplied as ranges (A=<0.1 μM, B=0.1 μM to 1 μM, C=>1 μM to 10 μM, D=>10 μM).
Background: Polarisation of emitted light reports the rotation of a fluorescent probe.

For another assay, the target named is T2, cIAP-1 BIR-3 (Homo sapiens, UniProt Q13490).
T2 construct: 40 nM of the respective IAP BIR3
T2 sequence (Q13490 253-363 limits assumed): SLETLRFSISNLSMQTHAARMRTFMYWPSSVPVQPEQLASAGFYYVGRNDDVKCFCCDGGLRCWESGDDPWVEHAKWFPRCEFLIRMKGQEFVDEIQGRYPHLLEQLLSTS
Kind of assay: Fluorescence polarization binding to cIAP-1 BIR-3 with labeled peptide AbuRPF-K(5-Fam)-NH2. Conditions: 40 nM BIR3, 5 nM labeled peptide, reported as ranges, read-out: KD (c-IAP-1 BIR3). On the procedure:
as §1

The test system of assay [1] is ovarian cancer cell line, SK-OV-3. Briefly: SK-OV-3 cell growth inhibition (MTT, 72 hrs). The format is cell-based. Conditions: Homo sapiens, concentration giving 50% cell survival, reported as ranges. How it is done: Compounds of the invention also were tested for their ability to inhibit the growth of an ovarian cancer cell line, SK-OV-3. A known assay previously used for measuring cell growth (as described in Hansen, M. B., Nielsen, S. E., and Berg, K. (1989) J. Immunol. Methods 119, 203-210 and incorporated herein by reference in its entirety) was used. Briefly, SK-OV-3 cells are seeded in 96-well plates in McCoy's medium containing 10% fetal bovine serum albumin (5,000 per well) and incubated overnight at 37° C. The next day, test compounds are added at various concentrations (0.003-10 μM) and the plates are incubated at 37° C. for an additional 72 hrs. This incubation time was considered to be optimal for measuring inhibitory effects of the different compounds tested. 50 microliters of 5 mg/mL MTT reagent is added to each well and the plates are incubated at 37° C. for another three (3) hours. At the end of the three (3) hour incubation period, 50 microliters of DMSO is added to each well to dissolve cells and the optical density (OD) of the wells is measured with a microplate reader (Victor^2 1420, Wallac, Finland) at 535 nm. Cell survival (CS) was calculated using the following equation: CS=(OD treated well/mean OD control wells)×100%.
The CC50 (reported in the following tables), is defined as the drug concentration that results in 50% cell survival (CS), and is derived by calculating the point where the dose-response curve crosses the 50% CS point using GraphPad Prism. The reported CC50 values are supplied as ranges (A=<0.1 μM, B=0.1 μM to 1 μM, C=>1 μM to 10 μM, D=>10 μM).

A value given as a limit tells only on which side of the number the result lay.

T1 sequence (P98170 241-356 limits assumed): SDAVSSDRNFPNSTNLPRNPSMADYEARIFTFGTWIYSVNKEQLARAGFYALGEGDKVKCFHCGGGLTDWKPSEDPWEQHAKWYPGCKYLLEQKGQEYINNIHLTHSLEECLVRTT

Take `CN[C@@H](C)C(=O)N[C@H](C(=O)N1CC[C@@H]2[C@H]1[C@@H](Oc1ccccc1)CN2C(=O)OC(C)(C)C)C(C)C` [Example 1, 4-[3-Methyl-2-(2-methylamino-propionylamino)-butyryl]-3-phenoxy-hexahydro-pyrrolo[3,2-b]pyrrole-1-carboxylic acid tert-butyl ester]: the dissociation constant Kd (commonly the constant that tells how readily two partners part at equilibrium) at XIAP BIR-3 is 100 to 1000 nM; at cIAP-1 BIR-3, below 100 nM. Further, the CC50 (in general, the concentration giving 50% cytotoxicity) in assay [1] is below 100 nM.

On to `CN[C@@H](C)C(=O)N[C@H](C(=O)N1CC[C@@H]2[C@H]1[C@@H](Oc1ccccc1)CN2C(C)=O)C(C)C` [Example 2, N-[1-(4-Acetyl-6-phenoxy-hexahydro-pyrrolo[3,2-b]pyrrole-1-carbonyl)-2-methyl-propyl]-2-methylamino-propionamide], for which the Kd on XIAP BIR-3 was 1000 to 10000 nM; at cIAP-1 BIR-3 it was below 100 nM. The cytotoxic concentration (CC50) in assay [1] was below 100 nM.

For `CN[C@@H](C)C(=O)N[C@H](C(=O)N1CC[C@@H]2[C@H]1[C@@H](Oc1ccccc1)CN2S(C)(=O)=O)C(C)C` [Example 3, N-[1-(4-Methanesulfonyl-6-phenoxy-hexahydro-pyrrolo[3,2-b]pyrrole-1-carbonyl)-2-methyl-propyl]-2-methylamino-propionamide], the Kd at XIAP BIR-3 and on cIAP-1 BIR-3 was below 100 nM in each case. Also, in assay [1], the CC50 was below 100 nM.

As to `CN[C@@H](C)C(=O)N[C@H](C(=O)N1CC[C@H]2NC[C@H](Oc3ccccc3-c3ccccc3)[C@H]21)C1CCCCC1` [Example 4, N-{2-[6-(Biphenyl-2-yloxy)-hexahydro-pyrrolo[3,2-b]pyrrol-1-yl]-1-cyclohexyl-2-oxo-ethyl}-2-methylamino-propionamide], the equilibrium dissociation constant (Kd) is 100 to 1000 nM at XIAP BIR-3 and below 100 nM at cIAP-1 BIR-3. This molecule also gave a CC50 in assay [1] of 100 to 1000 nM.

As for `CN[C@@H](C)C(=O)N[C@H](C(=O)N1CC[C@H]2NC[C@H](Oc3cccc4c3CCCC4)[C@H]21)C1CCCCC1` [Example 5, N-{1-Cyclohexyl-2-oxo-2-[6-(5,6,7,8-tetrahydro-naphthalen-1-yloxy)-hexahydro-pyrrolo[3,2-b]pyrrol-1-yl]-ethyl}-2-methylamino-propionamide], the Kd is 100 to 1000 nM on XIAP BIR-3 and below 100 nM on cIAP-1 BIR-3. The same molecule displayed a half-maximal cytotoxic concentration (CC50) in assay [1] of 100 to 1000 nM.

As for `CN[C@@H](C)C(=O)N[C@H](C(=O)N1CC[C@H]2NC[C@H](Oc3ccc4c(c3)CCCC4)[C@H]21)C1CCCCC1` [Example 6, N-{1-Cyclohexyl-2-oxo-2-[6-(5,6,7,8-tetrahydro-naphthalen-2-yloxy)-hexahydro-pyrrolo[3,2-b]pyrrol-1-yl]-ethyl}-2-methylamino-propionamide], the Kd on XIAP BIR-3 and at cIAP-1 BIR-3 was below 100 nM throughout. The molecule also came in with a CC50 in assay [1] below 100 nM.

With `CN[C@@H](C)C(=O)N[C@H](C(=O)N1CC[C@H]2NC[C@H](Oc3ccc4ccccc4c3)[C@H]21)C1CCCCC1` [Example 7, N-{1-Cyclohexyl-2-[6-(naphthalen-2-yloxy)-hexahydro-pyrrolo[3,2-b]pyrrol-1-yl]-2-oxo-ethyl}-2-methylamino-propionamide], the Kd on XIAP BIR-3 and at cIAP-1 BIR-3 was below 100 nM each time. Moreover, the half-maximal cytotoxic concentration (CC50) in assay [1] was below 100 nM.

`CN[C@@H](C)C(=O)N[C@H](C(=O)N1CC[C@H]2NC[C@H](Oc3cccc4ccccc34)[C@H]21)C1CCCCC1` [Example 8, N-{1-Cyclohexyl-2-[6-(naphthalen-1-yloxy)-hexahydro-pyrrolo[3,2-b]pyrrol-1-yl]-2-oxo-ethyl}-2-methylamino-propionamide]: the Kd at XIAP BIR-3 and at cIAP-1 BIR-3 was below 100 nM throughout. The molecule further came in with a half-maximal cytotoxic concentration (CC50) in assay [1] of 100 to 1000 nM.

As to `CN[C@@H](C)C(=O)N[C@H](C(=O)N1CC[C@@H]2[C@H]1[C@@H](Oc1ccc(F)cc1)CN2S(C)(=O)=O)C(C)C` [Example 9, N-{1-[6-(4-Fluoro-phenoxy)-4-methanesulfonyl-hexahydro-pyrrolo[3,2-b]pyrrole-1-carbonyl]-2-methyl-propyl}-2-methylamino-propionamide], the Kd at XIAP BIR-3 and at cIAP-1 BIR-3 was below 100 nM each time. The molecule further displayed a CC50 in assay [1] below 100 nM.

Consider `CN[C@@H](C)C(=O)N[C@H](C(=O)N1CC[C@@H]2[C@H]1[C@@H](Oc1ccc(F)cc1)CN2S(C)(=O)=O)C1CCCCC1` [Example 10, N-{1-Cyclohexyl-2-[6-(4-fluoro-phenoxy)-4-methanesulfonyl-hexahydro-pyrrolo[3,2-b]pyrrol-1-yl]-2-oxo-ethyl}-2-methylamino-propionamide], for which the Kd on XIAP BIR-3 and at cIAP-1 BIR-3 was below 100 nM in each case. The same molecule yielded a 50% cytotoxic concentration (CC50) in assay [1] below 100 nM.

On to `CN[C@@H](C)C(=O)N[C@H](C(=O)N1CC[C@@H]2[C@H]1[C@@H](Oc1ccc(F)cc1)CN2S(C)(=O)=O)[C@@H](C)OC` [Example 11, N-{1-[6-(4-Fluoro-phenoxy)-4-methanesulfonyl-hexahydro-pyrrolo[3,2-b]pyrrole-1-carbonyl]-2-methoxy-propyl}-2-methylamino-propionamide], for which the Kd on XIAP BIR-3 and on cIAP-1 BIR-3 was below 100 nM in each case. In addition, the CC50 in assay [1] was below 100 nM.

For `CN[C@@H](C)C(=O)N[C@H](C(=O)N1CC[C@@H]2[C@H]1[C@@H](Oc1ccc(F)c(F)c1)CN2S(C)(=O)=O)C(C)C` [Example 12, N-{1-[6-(3,4-Difluoro-phenoxy)-4-methanesulfonyl-hexahydro-pyrrolo[3,2-b]pyrrole-1-carbonyl]-2-methyl-propyl}-2-methylamino-propionamide], the dissociation constant Kd on XIAP BIR-3 and on cIAP-1 BIR-3 was below 100 nM throughout. In assay [1], this molecule returned a half-maximal cytotoxic concentration (CC50) below 100 nM.

With `CN[C@@H](C)C(=O)N[C@H](C(=O)N1CC[C@@H]2[C@H]1[C@@H](Oc1ccc(F)c(F)c1)CN2S(C)(=O)=O)C1CCCCC1` [Example 13, N-{1-Cyclohexyl-2-[6-(3,4-difluoro-phenoxy)-4-methanesulfonyl-hexahydro-pyrrolo[3,2-b]pyrrol-1-yl]-2-oxo-ethyl}-2-methylamino-propionamide], the equilibrium dissociation constant (Kd) at XIAP BIR-3 and at cIAP-1 BIR-3 was below 100 nM in each case. Besides, in assay [1], the CC50 was below 100 nM.

With `CN[C@@H](C)C(=O)N[C@H](C(=O)N1CC[C@@H]2[C@H]1[C@@H](Oc1ccc(F)c(F)c1)CN2S(C)(=O)=O)[C@@H](C)OC` [Example 14, N-{1-[6-(3,4-Difluoro-phenoxy)-4-methanesulfonyl-hexahydro-pyrrolo[3,2-b]pyrrole-1-carbonyl]-2-methoxy-propyl}-2-methylamino-propionamide], the Kd at XIAP BIR-3 and on cIAP-1 BIR-3 was below 100 nM in each case. Also, the half-maximal cytotoxic concentration (CC50) in assay [1] was below 100 nM.

Take `CN[C@@H](C)C(=O)N[C@H](C(=O)N1CC[C@@H]2[C@H]1[C@@H](Oc1ccc(F)c(F)c1)CN2C1CCOCC1)C(C)(C)C` [Example 15, N-{1-[6-(3,4-Difluoro-phenoxy)-4-(tetrahydro-pyran-4-yl)-hexahydro-pyrrolo[3,2-b]pyrrole-1-carbonyl]-2,2-dimethyl-propyl}-2-methylamino-propionamide]: the Kd on XIAP BIR-3 was 100 to 1000 nM; at cIAP-1 BIR-3, below 100 nM. The molecule further gave a CC50 in assay [1] below 100 nM.

In the case of `CCN1C[C@H](Oc2ccc(F)c(F)c2)[C@@H]2[C@H]1CCN2C(=O)[C@@H](NC(=O)[C@H](C)NC)C(C)(C)C` [Example 16, N-{1-[6-(3,4-Difluoro-phenoxy)-4-ethyl-hexahydro-pyrrolo[3,2-b]pyrrole-1-carbonyl]-2,2-dimethyl-propyl}-2-methylamino-propionamide], the Kd at XIAP BIR-3 and at cIAP-1 BIR-3 was below 100 nM in each case. The CC50 in assay [1] was 100 to 1000 nM.

`CN[C@@H](C)C(=O)N[C@H](C(=O)N1CC[C@@H]2[C@H]1[C@@H](Oc1ccc(F)c(F)c1)CN2C1CCCC1)C(C)(C)C` [Example 17, N-{1-[4-Cyclopentyl-6-(3,4-difluoro-phenoxy)-hexahydro-pyrrolo[3,2-b]pyrrole-1-carbonyl]-2,2-dimethyl-propyl}-2-methylamino-propionamide]: the equilibrium dissociation constant (Kd) on XIAP BIR-3 is 100 to 1000 nM; at cIAP-1 BIR-3 it was below 100 nM. The molecule also had a CC50 in assay [1] below 100 nM.

Values taken from patent US8415486B2, “IAP inhibitors” (TetraLogic Pharmaceuticals Corp., priority 2009, dated 2013).
